In one test the target is T1, human TLR7 (Homo sapiens, UniProt Q9NYK1).
T1 construct: host or cells: HEK-Blue human TLR7 cells (HEK293-derived reporter line)
T1 sequence (Q9NYK1 27-1049): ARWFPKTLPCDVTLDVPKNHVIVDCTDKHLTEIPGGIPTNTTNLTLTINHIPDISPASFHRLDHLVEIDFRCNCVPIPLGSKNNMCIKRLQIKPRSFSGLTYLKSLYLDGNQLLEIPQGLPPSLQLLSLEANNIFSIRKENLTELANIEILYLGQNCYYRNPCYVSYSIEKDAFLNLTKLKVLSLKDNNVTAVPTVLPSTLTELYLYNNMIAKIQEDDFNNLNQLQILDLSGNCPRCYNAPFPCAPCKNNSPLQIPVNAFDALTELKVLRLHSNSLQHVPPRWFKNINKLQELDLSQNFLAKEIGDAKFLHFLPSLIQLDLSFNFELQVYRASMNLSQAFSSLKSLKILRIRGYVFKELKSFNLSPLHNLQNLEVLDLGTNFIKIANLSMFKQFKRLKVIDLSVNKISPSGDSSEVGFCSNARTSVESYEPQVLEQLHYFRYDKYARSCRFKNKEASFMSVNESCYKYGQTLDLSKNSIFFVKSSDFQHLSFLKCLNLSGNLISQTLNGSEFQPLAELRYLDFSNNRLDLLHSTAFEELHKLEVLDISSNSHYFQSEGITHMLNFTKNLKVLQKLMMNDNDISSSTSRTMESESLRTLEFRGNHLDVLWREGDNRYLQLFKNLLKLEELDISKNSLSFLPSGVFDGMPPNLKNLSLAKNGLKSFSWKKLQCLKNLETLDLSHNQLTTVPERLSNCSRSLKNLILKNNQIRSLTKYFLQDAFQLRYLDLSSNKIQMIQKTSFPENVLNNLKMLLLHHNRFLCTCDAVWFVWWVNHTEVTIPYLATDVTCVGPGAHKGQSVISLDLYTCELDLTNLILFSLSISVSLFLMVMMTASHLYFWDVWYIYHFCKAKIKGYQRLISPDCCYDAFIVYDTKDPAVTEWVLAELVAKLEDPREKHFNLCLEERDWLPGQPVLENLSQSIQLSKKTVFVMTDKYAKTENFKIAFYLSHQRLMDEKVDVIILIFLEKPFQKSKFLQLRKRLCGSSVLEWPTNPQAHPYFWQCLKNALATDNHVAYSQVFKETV
Put plainly: HEK-Blue human TLR7 cells NF-κB SEAP reporter assay. The test is classed as cell-based. To be noted: stimulation for 20 hours, Quanti Blue 640 nm. An excerpt: (§1) For TLR8 and TLR7 activity testing, HEK-Blue human TLR8 or TLR7 cells (Invivogen, San Diego, Calif., USA) are used, respectively. These cells are designed for studying the stimulation of human TLR8 or TLR7 by monitoring the activation of NF-κB. A SEAP (secreted embryonic alkaline phosphatase) reporter gene is placed under the control of the IFN-b minimal promoter fused to five NF-κB and AP-1-binding sites. Therefore the reporter expression is regulated by the NF-κB promoter upon stimulation of human TLR8 or TLR7 for 20 hours. The cell culture supernatant SEAP reporter activity was determined using Quanti Blue kit (Invivogen, San Diego, Calif., USA) at a wavelength of 640 nm, a detection medium that turns purple/blue in the presence of alkaline phosphatase. EC50 values were determined using Activity Base analysis (ID Business Solution, Limited).
For orientation: In a reporter assay the amount or activity of a reporter protein is the signal.

In another test the target is T2, human TLR8 (Homo sapiens, UniProt Q9NR97).
T2 construct: host or cells: HEK-Blue human TLR8 cells (HEK293-derived reporter line)
T2 sequence (Q9NR97 27-1041): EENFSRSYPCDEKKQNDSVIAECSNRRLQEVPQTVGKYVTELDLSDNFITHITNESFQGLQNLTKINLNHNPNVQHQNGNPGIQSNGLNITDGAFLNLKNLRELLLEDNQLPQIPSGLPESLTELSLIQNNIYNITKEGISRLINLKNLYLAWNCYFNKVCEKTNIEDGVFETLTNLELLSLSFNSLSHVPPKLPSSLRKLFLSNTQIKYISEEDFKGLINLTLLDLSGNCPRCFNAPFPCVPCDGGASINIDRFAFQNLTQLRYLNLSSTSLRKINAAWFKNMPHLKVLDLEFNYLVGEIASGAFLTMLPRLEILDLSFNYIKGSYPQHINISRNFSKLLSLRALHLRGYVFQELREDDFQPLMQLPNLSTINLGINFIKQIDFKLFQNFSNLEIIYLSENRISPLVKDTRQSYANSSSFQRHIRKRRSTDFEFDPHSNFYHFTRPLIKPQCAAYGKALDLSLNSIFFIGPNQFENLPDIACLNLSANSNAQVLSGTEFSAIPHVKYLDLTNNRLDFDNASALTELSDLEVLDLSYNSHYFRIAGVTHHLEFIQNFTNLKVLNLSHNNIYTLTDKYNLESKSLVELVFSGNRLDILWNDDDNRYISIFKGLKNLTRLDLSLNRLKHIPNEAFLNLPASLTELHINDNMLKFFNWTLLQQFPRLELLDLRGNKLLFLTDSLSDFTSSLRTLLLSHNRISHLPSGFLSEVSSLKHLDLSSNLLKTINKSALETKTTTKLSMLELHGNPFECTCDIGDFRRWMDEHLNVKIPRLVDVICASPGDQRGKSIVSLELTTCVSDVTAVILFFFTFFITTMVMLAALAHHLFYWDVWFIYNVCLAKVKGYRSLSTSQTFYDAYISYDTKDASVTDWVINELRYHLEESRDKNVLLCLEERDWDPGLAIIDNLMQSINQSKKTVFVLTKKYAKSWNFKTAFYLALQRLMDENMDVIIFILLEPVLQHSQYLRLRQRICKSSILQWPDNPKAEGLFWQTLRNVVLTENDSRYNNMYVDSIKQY
Put plainly: HEK-Blue human TLR8 cells NF-κB SEAP reporter assay. The test is classed as cell-based. The settings on record: stimulation for 20 hours, Quanti Blue 640 nm.
Text: as §1

Broadly, the EC50 is the concentration needed to bring the measured effect to its halfway point. A lower EC50 goes with greater potency. `CCCN(CCC)C(=O)C1=Cc2ccc(C(=O)NC3CCC(CNc4ccccc4)CC3)cc2N=C(N)C1` (stereo not shown) [Example 26, 2-Amino-N8-[4-(anilinomethyl)cyclohexyl]-N4,N4-dipropyl-3H-1-benzazepine-4,8-dicarboxamide]: the half-maximal effective concentration (EC50) at human TLR7 was greater than 100000 nM; on human TLR8, 9 nM.

As for `CCCN(CCC)C(=O)C1=Cc2ccc(C(=O)NCc3cncs3)cc2N=C(N)C1` [Example 9, 2-Amino-N4,N4-dipropyl-N8-(thiazol-5-ylmethyl)-3H-1-benzazepine-4,8-dicarboxamide], the half-maximal effective concentration (EC50) at human TLR7 was found to be 52000 nM; on human TLR8 it was 24 nM.

`CCCN(CCC)C(=O)C1=Cc2ccc(C(=O)NCCCc3cccnc3)cc2N=C(N)C1` [Example 21, 2-Amino-N4,N4-dipropyl-N8-[3-(3-pyridyl)propyl]-3H-1-benzazepine-4,8-dicarboxamide]: the EC50 at human TLR7 was greater than 100000 nM; at human TLR8 it was 29 nM.

For `CCCN(CCC)C(=O)C1=Cc2ccc(C(=O)NC3CCCC3)cc2N=C(N)C1` [Example 15, 2-Amino-N8-cyclopentyl-N4,N4-dipropyl-3H-1-benzazepine-4,8-dicarboxamide], the concentration for a half-maximal effect (EC50) is greater than 100000 nM at human TLR7 and 14 nM at human TLR8.

`CCCN(CCC)C(=O)C1=Cc2ccc(C(=O)NCc3cccnc3)cc2N=C(N)C1` [Example 19, 2-Amino-N4,N4-dipropyl-N8-(3-pyridylmethyl)-3H-1-benzazepine-4,8-dicarboxamide]: the EC50 at human TLR7 was found to be 49000 nM; at human TLR8 it was 25 nM.

Take `CCCN(CCC)C(=O)C1=Cc2ccc(C(=O)N[C@H](C)c3ccccc3)cc2N=C(N)C1` [Example 14, 2-Amino-N8-[(1R)-1-phenylethyl]-N4,N4-dipropyl-3H-1-benzazepine-4,8-dicarboxamide]: the EC50 was determined as 35000 nM at human TLR7 and 12 nM on human TLR8.

Turning to `CCCN(CCC)C(=O)C1=Cc2ccc(C(=O)NC3(c4ccccc4)CCOCC3)cc2N=C(N)C1` [Example 11, 2-Amino-N8-(4-phenyltetrahydropyran-4-yl)-N4,N4-dipropyl-3H-1-benzazepine-4,8-dicarboxamide], the results for the concentration for a half-maximal effect (EC50) at human TLR7 and at human TLR8 were greater than 100000 nM and 29 nM, respectively.

Regarding `CCCN(CCC)C(=O)C1=Cc2ccc(C(=O)NCc3nccs3)cc2N=C(N)C1` [Example 12, 2-Amino-N4,N4-dipropyl-N8-(thiazol-2-ylmethyl)-3H-1-benzazepine-4,8-dicarboxamide], the EC50 at human TLR7 was 42000 nM; on human TLR8, 13 nM.

Turning to `CCCN(CCC)C(=O)C1=Cc2ccc(C(=O)NC3CC(CNc4ccccc4)C3)cc2N=C(N)C1` (stereo not shown) [Example 27, 2-Amino-N8-[3-(anilinomethyl)cyclobutyl]-N4,N4-dipropyl-3H-1-benzazepine-4,8-dicarboxamide], the concentration for a half-maximal effect (EC50) at human TLR7 was greater than 100000 nM; at human TLR8, 7 nM.

As for `CCCN(CCC)C(=O)C1=Cc2ccc(C(=O)N[C@H]3CCN(c4ccccc4)C3)cc2N=C(N)C1` [Example 25, 2-Amino-N8-[(3S)-1-phenylpyrrolidin-3-yl]-N4,N4-dipropyl-3H-1-benzazepine-4,8-dicarboxamide], the 50% effective concentration (EC50) on human TLR7 is greater than 100000 nM; on human TLR8, 10 nM.

Regarding `CCCN(CCC)C(=O)C1=Cc2ccc(C(=O)NC3(c4ccccc4)CCC3)cc2N=C(N)C1` [Example 6, 2-Amino-N8-(1-phenylcyclobutyl)-N4,N4-dipropyl-3H-1-benzazepine-4,8-dicarboxamide], the EC50 on human TLR7 stood at 13000 nM; on human TLR8 it was 7 nM.

Take `CCCN(CCC)C(=O)C1=Cc2ccc(C(=O)N[C@@H](C)c3ccccc3)cc2N=C(N)C1` [Example 7, 2-Amino-N8-[(1S)-1-phenylethyl]-N4,N4-dipropyl-3H-1-benzazepine-4,8-dicarboxamide]: the 50% effective concentration (EC50) came to 17000 nM on human TLR7 and 10 nM at human TLR8.

Consider `CCCN(CCC)C(=O)C1=Cc2ccc(C(=O)N[C@H]3C[C@@H]3c3ccccc3)cc2N=C(N)C1` [Example 1, 2-Amino-N8-[(1S,2R)-2-phenylcyclopropyl]-N4,N4-dipropyl-3H-1-benzazepine-4,8-dicarboxamide], for which the concentration giving a half-maximal response (EC50) at human TLR7 worked out at 7900 nM; at human TLR8, 2 nM.

For `CCCN(CCC)C(=O)C1=Cc2ccc(C(=O)NCc3ccon3)cc2N=C(N)C1` [Example 8, 2-Amino-N8-(isoxazol-3-ylmethyl)-N4,N4-dipropyl-3H-1-benzazepine-4,8-dicarboxamide], the figures for the EC50 at human TLR7 and on human TLR8 were 40000 nM and 12 nM, respectively.

As to `CCCN(CCC)C(=O)C1=Cc2ccc(C(=O)NC3CCN(c4ccccc4)CC3)cc2N=C(N)C1` [Example 2, 2-Amino-N8-(1-phenyl-4-piperidyl)-N4,N4-dipropyl-3H-1-benzazepine-4,8-dicarboxamide], the figures for the EC50 at human TLR7 and at human TLR8 were 10000 nM and 2 nM, respectively.

Regarding `CCCN(CCC)C(=O)C1=Cc2ccc(C(=O)NC3(c4ccccc4)CC3)cc2N=C(N)C1` [Example 5, 2-Amino-N8-(1-phenylcyclopropyl)-N4,N4-dipropyl-3H-1-benzazepine-4,8-dicarboxamide], the concentration for a half-maximal effect (EC50) on human TLR7 is greater than 100000 nM; at human TLR8, 6 nM.

As to `CCCN(CCC)C(=O)C1=Cc2ccc(C(=O)NCc3ccccc3)cc2N=C(N)C1` [Example 18, 2-Amino-N8-benzyl-N4,N4-dipropyl-3H-1-benzazepine-4,8-dicarboxamide], the EC50 came to 25000 nM on human TLR7 and 26 nM at human TLR8.

Regarding `CCCN(CC1CC1)C(=O)C1=Cc2ccc(C(=O)NC3C[C@H]3c3ccccc3)cc2N=C(N)C1` (stereo partly drawn) [Example 22, 2-Amino-N4-(cyclopropylmethyl)-N8-[(2S)-2-phenylcyclopropyl]-N4-propyl-3H-1-benzazepine-4,8-dicarboxamide], the half-maximal effective concentration (EC50) on human TLR7 worked out at 14000 nM; on human TLR8 it was 5 nM.

On to `CCCN(CCC)C(=O)C1=Cc2ccc(C(=O)N[C@@H]3CCN(c4ccccc4)C3)cc2N=C(N)C1` [Example 28, 2-Amino-N8-[(3R)-1-phenylpyrrolidin-3-yl]-N4,N4-dipropyl-3H-1-benzazepine-4,8-dicarboxamide], for which the EC50 at human TLR7 is greater than 100000 nM; on human TLR8, 10 nM.

As to `CCCN(CCC)C(=O)C1=Cc2ccc(C(=O)NC3CCN(c4ccccc4)C3)cc2N=C(N)C1` (stereo not shown) [Example 24, 2-Amino-N8-(1-phenylpyrrolidin-3-yl)-N4,N4-dipropyl-3H-1-benzazepine-4,8-dicarboxamide], the concentration for a half-maximal effect (EC50) was greater than 100000 nM on human TLR7 and 19 nM at human TLR8.

For the origin of these results see patent US10544102B2, “Benzazepine dicarboxamide compounds with secondary amide function” (Hoffmann-La Roche Inc., priority 2017, dated 2020).
